{
  "source": "patent US20260130894A1",
  "about": "“COMPOSITION COMPRISING ISOQUINOLINE DERIVATIVE AS ACTIVE INGREDIENT FOR PREVENTION OR TREATMENT OF PARKINSON'S DISEASE” (ALTMEDICAL CO., LTD., priority 2022, published 2026)",
  "key": {"BEAS-2B cell line [1]": {"tested_on": "BEAS-2B cell line", "assay": "Mitophagy activity in BEAS-2B cells expressing mt-Keima (FACS, confocal microscope, mito-YFP)", "type": "cell-based, human", "description": "To analyze the mitophagy-promoting activity effect of the CD1-012 synthesized in the Example 1, the BEAS-2B cell line, which is a human normal lung cell line, was induced to express the mt-Keima fluorescent protein. Following this, the CD1-012 (15 μM) and the compound of Comparative Example 1, CCCP (10 μM), were treated for 24 hours. After the treatment, the mitophagy activity of each sample was measured, and the results were represented in FIGS. 1A to 1C.\nSpecifically, FIG. 1A represents the analysis results using flow cytometry (FACS) (treatment of CD1-012 at 15 μM for 24 hours), FIG. 1B represents the analysis results using a confocal microscope (treatment of CD1-012 at 15 μM for 18 hours), and FIG. 1C represents the measurement results of the quantitative changes in the mitochondria using a fluorescent protein, mito-YFP, which includes a targeting sequence to transport protein to the mitochondria (treatment of CD1-012 at 20 μM for 24 hours).\nIt was confirmed whether CD1-012 synthesized in Example 1 promotes mitophagy activity in a concentration- and time-dependent manner. To this end, the CD1-012 was treated at various concentrations or at a fixed concentration (15 μM) for different treatment durations in the BEAS-2B cell line expressing mt-Keima, and mitophagy activity was measured using a flow cytometer.\n(§1) It was confirmed whether CD1-012 synthesized in Example 1 specifically increases only mitophagy activity. To this end, the BEAS-2B cell line expressing mt-Keima was treated with CD1-012 (15 μM) or Comparative Example 1 (CCCP, 10 μM) for 18 hours, and mitophagy activity was analyzed using a confocal microscope. Additionally, to measure autophagy activity, the BEAS-2B cell line expressing Keima fluorescent protein was incubated in Hanks' balanced salt solution (HBSS) for 3 hours to induce a starvation condition (starv.), and the results were compared with samples treated with CD1-012 (15 μM) for 18 hours using a confocal microscope.\nTo this end, the human normal lung cell line BEAS-2B, expressing mt-Keima fluorescent protein, was treated with CD1-012, Comparative Example 2 (palmatine), or Comparative Example 3 (berberine) at various concentrations, and the mitophagy-inducing activity of each sample was compared."}, "SH-SY5Y cell line": {"tested_on": "SH-SY5Y cell line", "assay": "Mitophagy activity in SH-SY5Y cells expressing mt-Keima (FACS)", "type": "cell-based, human", "conditions": "FACS (FIG. 2A)", "description": "(§2) It was confirmed whether CD1-012 synthesized in Example 1 increases mitophagy activity in various cell lines. To this end, CD1-012 and Comparative Example 1 (CCCP) were treated in the SH-SY5Y cell line, a human neuroblastoma cell line expressing mt-Keima fluorescent protein, and in the HeLa-Parkin cell line, a HeLa cervical cancer cell line expressing Parkin (E3 ligase). Following this treatment, the mitophagy activity of each sample was analyzed using flow cytometry (FACS), and the results are shown in FIGS. 2A to 2B."}, "HeLa-Parkin cell line": {"tested_on": "HeLa-Parkin cell line", "assay": "Mitophagy activity in HeLa-Parkin cells (FACS)", "type": "cell-based, human", "conditions": "FACS (FIG. 2B)", "description": "as §2"}, "BEAS-2B cell line [2]": {"tested_on": "BEAS-2B cell line", "assay": "Autophagy activity in BEAS-2B cells expressing Keima (confocal microscope)", "type": "cell-based, human", "conditions": "15 μM, 18 hours (FIG. 4B)", "description": "as §1"}, "[3]": {"tested_on": "mitochondrial membrane potential", "assay": "Mitochondrial membrane potential, TMRM assay", "type": "cell-based", "conditions": "CD1-012 10 μM or 15 μM, CCCP 10 μM, 24 hours (FIG. 6)", "description": "(§3) It was confirmed whether the isoquinoline derivative according to the present invention induces mitochondrial dysfunction, similar to CCCP. To this end, the CD1-012 (10 μM or 15 μM) and CCCP (10 μM) were treated for 24 hours, and the mitochondrial membrane potential and mitochondrial reactive oxygen species (ROS) levels in each sample were analyzed. Mitochondrial membrane potential was analyzed using the TMRM (tetramethylrhodamine methyl ester) assay, and mitochondrial ROS levels were analyzed using the MitoSOX assay."}, "[4]": {"tested_on": "mitochondrial reactive oxygen species (ROS)", "assay": "Mitochondrial reactive oxygen species, MitoSOX assay", "type": "cell-based", "conditions": "CD1-012 10 μM or 15 μM, CCCP 10 μM, 24 hours (FIG. 6)", "description": "as §3"}, "[5]": {"tested_on": "wild type (WT) and PINK1-deficient (PINK1−/−) mouse embryonic fibroblasts (MEFs)", "assay": "Mitochondrial protein Cox2 level by western blotting in WT and PINK1-deficient MEFs", "type": "cell-based", "conditions": "40 μM, 24 hours (FIG. 8A)"}, "PINK1-deficient MEFs": {"tested_on": "PINK1-deficient MEFs", "assay": "Mitochondrial function in PINK1-deficient MEFs (TMRM, MitoSOX-Red, ATP production)", "type": "cell-based, mouse", "conditions": "40 μM for 24 hours", "description": "Subsequently, PINK1-deficient MEFs were treated with CD1-012 at a concentration of 40 μM for 24 hours, and 4 days later, mitochondrial function as analyzed. The mitochondrial membrane potential was analyzed by the tetramethyl rhodamine methyl ester (TMRM) assay, and mitochondrial ROS was analyzed using the MitoSOX-Red assay. […] Conversely, the level of mitochondrial ROS, which was elevated compared to the wild-type cells, was reduced by CD1-012 treatment (FIG. 8D)."}, "[6]": {"tested_on": "PINK1-deficient Drosophila (B9)", "assay": "Mitochondrial function in Drosophila model of Parkinson's disease", "type": "in vivo", "description": "In this example, to further verify the effect of the compound of the present invention (CD1-012) on improving mitochondrial dysfunction, a Drosophila model of Parkinson's disease was used. To this end, after administering CD1-012 to PINK1 gene-deficient Drosophila, mitochondrial function was analyzed. […] As a result, the number of damaged mitochondria (with abnormally swollen morphology) observed in the PINK1-deficient Drosophila was reduced in the CD1-012-treated group as compared to an untreated control (FIG. 9A). […] In addition, after 2 weeks of CD1-012 administration, it could be observed that the ATP production capacity of the brain tissue of the PINK11-deficient Drosophila was restored (FIG. 9C)."}, "[7]": {"tested_on": "human nerve cell line H-SY5Y", "assay": "Mitochondrial function in sporadic Parkinson's disease cell model (MPP+ or 6-OHDA)", "type": "cell-based", "conditions": "CD1-012 20 μM one day", "description": "Sporadic Parkinson's disease has progressive motor/non-motor dysfunction symptoms, and most patients with Parkinson's disease have this disease. In this example, the therapeutic effect of CD1-012 on sporadic Parkinson's disease was confirmed. To this end, after a sporadic Parkinson's disease cell model was manufactured by treating a human nerve cell line H-SY5Y with the neurotoxins MPP+(62.5 μM) and 6-OHDA (40 μM) for two days, the cell model was treated with CD1-012 (20 μM) for one day and then the membrane potential and ATP production capacity of mitochondria were analyzed after two days."}},
  "data": [
    {"smiles": "Oc1cc2c(cc1O)-c1cc3ccc(O)c(O)c3c[n+]1CC2", "note": "[CD1-012, 2,3,9,10-tetrahydroxy-5,6-dihydroisoquinolino[3,2-a]isoquinolin-7-ium bromide]", "values": [
      {"measurement": "treatment time after which mitophagy activity began to significantly increase", "setting": "BEAS-2B cell line [1]; 15 μM (FIG. 3B)", "result": 3, "unit": "h"},
      {"measurement": "treatment time at which mitophagy activity reached its maximum level", "setting": "BEAS-2B cell line [1]; 15 μM (FIG. 3B)", "result": 18, "unit": "h"},
      {"measurement": "concentration at which mitophagy activity reached a level comparable to the maximum of palmatine and berberine", "setting": "BEAS-2B cell line [1]; BEAS-2B mt-Keima (FIG. 5)", "result": 10, "unit": "µM"},
      {"measurement": "mitophagy-inducing activity relative to berberine", "setting": "BEAS-2B cell line [1]; BEAS-2B mt-Keima (FIG. 5)", "result": "approximately 8 times"},
      {"measurement": "mitophagy-inducing activity relative to palmatine", "setting": "BEAS-2B cell line [1]; BEAS-2B mt-Keima (FIG. 5)", "result": "approximately 40 times"},
      {"measurement": "concentration at which mitophagy activity began to significantly increase compared to untreated control", "setting": "BEAS-2B cell line [1]; BEAS-2B mt-Keima, flow cytometer (FIG. 3A)", "result": "≥ 7.5", "unit": "µM"},
      {"measurement": "mitophagy activity compared to the untreated control group (Con)", "setting": "BEAS-2B cell line [1]; BEAS-2B mt-Keima, 15 μM 24 h (FACS), 15 μM 18 h (confocal), 20 μM 24 h (mito-YFP)", "result": "significant increase in mitophagy activity"},
      {"measurement": "mitophagy-promoting effect compared with CCCP (confocal microscope)", "setting": "BEAS-2B cell line [1]; CD1-012 15 μM, CCCP 10 μM, 18 hours (FIG. 4A)", "result": "mitophagy-promoting effects similar to those observed in the CCCP-treated sample"},
      {"measurement": "mitophagy activity compared with CCCP-treated sample (FIG. 1A)", "setting": "BEAS-2B cell line [1]; FACS, CD1-012 15 μM, CCCP 10 μM, 24 hours", "result": "increased as significantly as that of the sample treated with the representative mitophagy promoting compound, CCCP"},
      {"measurement": "concentration dependence of mitophagy activity", "setting": "BEAS-2B cell line [1]; up to the maximum treatment concentration of 17.5 μM (FIG. 3A)", "result": "continued to increase in a concentration-dependent manner"},
      {"measurement": "mitophagy activity compared to the control group (Con)", "setting": "SH-SY5Y cell line", "result": "significantly increased mitophagy activity"},
      {"measurement": "mitophagy activity compared to the control group (Con)", "setting": "HeLa-Parkin cell line", "result": "significantly increased mitophagy activity"},
      {"measurement": "autophagy activity compared to the untreated control group", "setting": "BEAS-2B cell line [2]", "result": "no significant difference in autophagy activity"},
      {"measurement": "mitochondrial membrane potential", "setting": "[3]", "result": "no decrease in mitochondrial membrane potential was observed"},
      {"measurement": "mitochondrial ROS levels", "setting": "[4]", "result": "no increase in mitochondrial ROS was detected"},
      {"measurement": "Cox2 protein level", "setting": "[5]", "result": "significantly decreased"},
      {"measurement": "mitochondrial ATP production (reduced in PINK1-deficient cells)", "setting": "PINK1-deficient MEFs; analyzed 4 days later (FIG. 8E)", "result": "restored"},
      {"measurement": "level of mitochondrial ROS (elevated in PINK1-deficient cells)", "setting": "PINK1-deficient MEFs; analyzed 4 days later, MitoSOX-Red (FIG. 8D)", "result": "reduced"},
      {"measurement": "mitochondrial membrane potential (decreased in PINK1-deficient cells)", "setting": "PINK1-deficient MEFs; analyzed 4 days later, TMRM (FIG. 8C)", "result": "restored"},
      {"measurement": "mitochondrial ROS in brain tissue (DCF-DA staining)", "setting": "[6]; 1 mM for 2 weeks (FIG. 9B)", "result": "significantly inhibited"},
      {"measurement": "number of damaged mitochondria (abnormally swollen morphology) in dopaminergic neurons compared to untreated control", "setting": "[6]; 1 mM for 2 weeks, brain tissue (FIG. 9A)", "result": "reduced"},
      {"measurement": "ATP production capacity of brain tissue", "setting": "[6]; 2 weeks of administration (FIG. 9C)", "result": "restored"},
      {"measurement": "mitochondrial membrane potential", "setting": "[7]; 6-OHDA (40 μM) model, analyzed after two days (FIG. 10B)", "result": "restored"},
      {"measurement": "ATP synthesis capacity of mitochondria", "setting": "[7]; 6-OHDA (40 μM) model, analyzed after two days (FIG. 10D)", "result": "significantly restored"},
      {"measurement": "mitochondrial membrane potential", "setting": "[7]; MPP+ (62.5 μM) model, analyzed after two days (FIG. 10A)", "result": "restored"},
      {"measurement": "ATP synthesis capacity of mitochondria", "setting": "[7]; MPP+ (62.5 μM) model, analyzed after two days (FIG. 10C)", "result": "significantly restored"}
    ]}
  ]
}
